Reference: patent US10072023B2, “Diarylethene compounds and uses thereof” (SWITCH MATERIALS, INC., priority 2011, dated 2018)

Assay: Absorbance at photostationary state (PSS) under simulated sunlight or 365 nm light
Assay type: physicochemical
Design: λ max: unit not given here
Settings: for Absorbance at PSS, 365 nm: 365 nm light source; for Absorbance at PSS, 365 nm / Absorbance at PSS, full / Absorbance at PSS, +UV / λ max: 2.0×10^−5 M in triglyme; for sensitivity index: ratio of PSS under 365 nm light to PSS under full spectrum light (without UV blocking film); for Absorbance at PSS, full: simulated sunlight (QSUN solar simulator), no UV blocking film; for Absorbance at PSS, +UV: simulated sunlight with UV blocking film (cutoff 370 nm); for λ max: wavelength of maximum absorbance in the visible range, ring-closed isoform
Method: Absorbance at a PSS for selected compounds was measured at 2.0×10^−5 M in triglyme in the absence (full) or presence (+UV) of a UV blocking film with a UV cutoff wavelength of 370 nm (10% transmission at 370 nm), using simulated sunlight (QSUN solar simulator) as a light source, or a 365 nm light source; these PSS are reported in Tables 1.5. […] “Switch” refers to the ability (yes or no) of the compound to be reversibly converted under photochromic and electrochromic conditions between a ring-open isomer and ring-closed isomer.
A sensitivity index (SI) is a ratio of the PSS under 365 nm light to the PSS under full spectrum light (without UV blocking film). SI is an indicator of the sensitivity of the compound to the composition of the incident light (a change in the ratio of UV and visible components)—photochemical ring-opening is induced by a portion of the visible light spectrum.
Photostationary State (PSS) UV/Vis spectra are obtained using an OceanOptics™ Spectrophotometer until absorption in the visible region of the spectrum stabilizes. A 2×10^−5M solution of compound in solvent is prepared, and photofaded using visible light until absorption in the visible region of the spectrum stabilizes. The sample is then irradiated with simulated sunlight (QSUN SS-150 Solar Simulator with xenon arc lamp) until the absorption spectrum stabilizes. To obtain PSS in the presence of a UV blocking film, a second sample is prepared and irradiated as described, with a UV blocking film inserted in the light path when irradiating.

Row | SMILES | Absorbance at PSS, 365 nm | sensitivity index | Absorbance at PSS, full | Absorbance at PSS, +UV | λ max
1 | C[Si](C)(C)c1ccc(-c2cc(C3=C(c4cc(-c5ccc([Si](C)(C)C)s5)sc4-c4ccc([Si](C)(C)C)s4)C(F)(F)C(F)(F)C3(F)F)c(-c3ccc([Si](C)(C)C)s3)s2)s1 [S135, 3′,3″″-(perfluorocyclopent-1-ene-1,2-diyl)bis(5,5″-bis(trimethylsilyl)-2,2′:5′,2″-terthiophene)] | 0.387 | 1.22 | 0.318 | 0.224 | 648
2 | Cc1ccc(-c2oc3ccccc3c2C2=C(c3c(-c4ccc(C)s4)oc4ccccc34)C(F)(F)C(F)(F)C2(F)F)s1 [S137, 3,3′-(perfluorocyclopent-1-ene-1,2-diyl)bis(2-(5-methylthiophen-2-yl)benzofuran)] | 0.15 | 4.55 | 0.033 | 0.016 | 497
3 | COc1ccc(-c2cc(C3=C(c4cc(-c5ccc(C#N)cc5)sc4-c4ccc(OC)cc4)C(F)(F)C(F)(F)C3(F)F)c(-c3ccc(C#N)cc3)s2)cc1 [S087, 4-(3-(2-(5-(4-cyanophenyl)-2-(4-methoxyphenyl)thiophen-3-yl)-3,3,4,4,5,5-hexafluorocyclopent-1-en-1-yl)-5-(4-methoxyphenyl)thiophen-2-yl)benzonitrile] | 0.209 | 1.92 | 0.109 | 0.055 | 628
4 | CC(C)(C)c1ccc(-c2cc(C3=C(c4cc(-c5ccc(C(C)(C)C)s5)sc4-c4ccc(O[Si](O[Si](C)(C)C)(O[Si](C)(C)C)O[Si](C)(C)C)cc4)C(F)(F)C(F)(F)C3(F)F)c(-c3ccc(O[Si](O[Si](C)(C)C)(O[Si](C)(C)C)O[Si](C)(C)C)cc3)s2)s1 [S118] | 0.34 | 1.52 | 0.223 | 0.124 | 648
5 | COc1ccc(-c2cc(C3=C(c4cc(-c5ccc(OC)cc5)sc4-c4ccc(C#N)cc4)C(F)(F)C(F)(F)C3(F)F)c(-c3ccc(C#N)cc3)s2)cc1 [S086, 4,4′-(3,3′-(perfluorocyclopent-1-ene-1,2-diyl)bis(5-(4-methoxyphenyl)thiophene-3,2-diyl))dibenzonitrile] | 0.231 | 2.01 | 0.115 | 0.071 | 610
6 | CC(C)(C)c1ccc(-c2cc(C3=C(c4cc(-c5ccc(C(C)(C)C)s5)sc4-c4ccc(OCCCCC#N)cc4)C(F)(F)C(F)(F)C3(F)F)c(-c3ccc(OCCCCC#N)cc3)s2)s1 [S139, 5,5′-(((4,4″-(perfluorocyclopent-1-ene-1,2-diyl)bis(5′-(tert-butyl)-[2″,2″′-bithiophene]-5″,4-diyl))bis(4,1phenylene))bis(oxy))dipentanenitrile] | 0.403 | – | 0.322 | 0.216 | –
7 | CC(C)(C)c1ccc(-c2sc(C(C)(C)C)cc2C2=C(c3cc(C(C)(C)C)sc3-c3ccc(C(C)(C)C)s3)C(F)(F)C(F)(F)C2(F)F)s1 [S073, 3,3′-(perfluorocyclopent-1-ene-1,2-diyl)bis(5,5′-di-tert-butyl-2,2′-bithiophene)] | 0.06 | 5.71 | 0.0105 | 0.006 | 550
8 | FC1(F)C(c2c(-c3ccccc3)sc3ccccc23)=C(c2c(-c3ccccc3)sc3ccccc23)C(F)(F)C1(F)F [S014, 3,3′-(perfluorocyclopent-1-ene-1,2-diyl)bis(2-phenylbenzo[b]thiophene)] | 0.011 | 2.75 | 0.004 | 0.006 | 525
9 | COc1ccc(-c2oc3cc(OC)ccc3c2C2=C(c3c(-c4ccc(OC)cc4)oc4cc(OC)ccc34)C(F)(F)C(F)(F)C2(F)F)cc1 [S140, 3,3′-(perfluorocyclopent-1-ene-1,2-diyl)bis(6-methoxy-2-(4-methoxyphenyl)benzofuran)] | 0.276 | 4.25 | 0.065 | 0.032 | 516
10 | Cc1cc(-c2sc(-c3sc(C)c(C)c3C)cc2C2=C(c3cc(-c4sc(C)c(C)c4C)sc3-c3cc(C)c(C)s3)C(F)(F)C(F)(F)C2(F)F)sc1C [S148, 4′,4″″-(perfluorocyclopent-1-ene-1,2-diyl)bis(3,4,4″,5,5″-pentamethyl-2,2′:5′,2″-terthiophene)] | 0.244 | 1.63 | 0.15 | 0.092 | 650
11 | CC(C)(C)c1ccc(-c2oc3cc4c(cc3c2C2=C(c3c(-c5ccc(C(C)(C)C)cc5)oc5cc6c(cc35)OCO6)C(F)(F)C(F)(F)C2(F)F)OCO4)cc1 [S163, 7,7′-(perfluorocyclopent-1-ene-1,2-diyl)bis(6-(4-(tert-butyl)phenyl)-[1,3]dioxolo[4,5-f]benzofuran)] | 0.533 | 2.12 | 0.252 | 0.116 | 588
12 | COc1ccc2c(C3=C(c4c(-c5ccc(C)s5)oc5cc(OC)ccc45)C(F)(F)C(F)(F)C3(F)F)c(-c3ccc(C)s3)oc2c1 [S144, 3,3′-(perfluorocyclopent-1-ene-1,2-diyl)bis(6-methoxy-2-(5-methylthiophen-2-yl)benzofuran)] | 0.318 | 3.88 | 0.082 | 0.04 | 513
13 | COc1ccc(-c2sc(-c3cc4ccccc4s3)cc2C2=C(c3cc(-c4cc5ccccc5s4)sc3-c3ccc(OC)cc3)C(F)(F)C(F)(F)C2(F)F)cc1 [S110, 2,2′-(4,4′-(perfluorocyclopent-1-ene-1,2-diyl)bis(5-(4-methoxyphenyl)thiophene-4,2-diyl))bis(benzo[b]thiophene)] | 0.414 | 1.20 | 0.346 | 0.221 | 653
14 | Cc1sc(-c2cc(C3=C(c4cc(-c5sc(C)c6c5OCCO6)sc4-c4sc(C)c5c4OCCO5)C(F)(F)C(F)(F)C3(F)F)c(-c3sc(C)c4c3OCCO4)s2)c2c1OCCO2 [S036] | 0.174 | 7.25 | 0.024 | 0.016 | 665
15 | CC(C)Oc1ccc(-c2cc(C3=C(c4cc(-c5ccc(OC(C)C)cc5)sc4-c4ccc(OC(C)C)cc4)C(F)(F)C(F)(F)C3(F)F)c(-c3ccc(OC(C)C)cc3)s2)cc1 [S092, 3,3′-(perfluorocyclopent-1-ene-1,2-diyl)bis(2,5-bis(4-isopropoxyphenyl)thiophene)] | 0.307 | 1.90 | 0.162 | 0.093 | 627
16 | CCOc1ccc(-c2cc(C3=C(c4cc(-c5ccc(OCC)cc5)sc4-c4ccc(OCC)cc4)C(F)(F)C(F)(F)C3(F)F)c(-c3ccc(OCC)cc3)s2)cc1 [S091, 3,3′-(perfluorocyclopent-1-ene-1,2-diyl)bis(2,5-bis(4-ethoxyphenyl)thiophene)] | 0.287 | 1.75 | 0.164 | 0.095 | 629
17 | N#Cc1ccc(-c2cc(C3=C(c4cc(-c5ccc(C#N)cc5)sc4-c4ccc(C#N)cc4)C(F)(F)C(F)(F)C3(F)F)c(-c3ccc(C#N)cc3)s2)cc1 [S074, 3,3′-(perfluorocyclopent-1-ene-1,2-diyl)bis(2,5-bis(4-cyanophenyl)thiophene)] | 0.189 | 2.74 | 0.069 | 0.024 | 620
